Source: ChEMBL document CHEMBL5150061, “Design and Synthesis of Fibroblast Growth Factor Receptor (FGFR) and Histone Deacetylase (HDAC) Dual Inhibitors for the Treatment of Cancer” (J Med Chem, 2022)
Activity calls are given as the source filed them. The rule behind the calls is not given here.

Assays:
Histone deacetylase 1 = Histone deacetylase 1 (Homo sapiens, UniProt Q13547); experiment: Inhibition of HDAC1 (unknown origin)
A2780 = experiment: cells; assay type: functional, cell-based; conditions: Homo sapiens, A2780, 72 h
cells = assay type: functional, cell-based; conditions: Homo sapiens, KATO III, 72 h
HCT-116 = experiment: cells; assay type: functional, cell-based; conditions: Homo sapiens, HCT-116, 72 h
SNU-16 [1] = conditions: Homo sapiens, dose 1-100 nM, time 36.0 hrs
SNU-16 [2] = experiment: cells; assay type: functional, cell-based; conditions: Homo sapiens, SNU-16, 72 h
Jurkat = experiment: cells; assay type: functional, cell-based; conditions: Homo sapiens, 72 h
K562 = experiment: cells; assay type: functional, cell-based; conditions: Homo sapiens, K562, 72 h
SNU-16 [3] = conditions: Homo sapiens, dose 1-100 nM, time 36.0 hrs; remark: listed apart in the source
[4] = molecular target: Fibroblast growth factor receptor 1 (Homo sapiens, UniProt P11362); experiment: Inhibition of FGFR1 (unknown origin)
[5] = molecular target: T1, Protein deacetylase HDAC6 (Homo sapiens, UniProt Q9UBN7); experiment: Inhibition of HDAC6 (unknown origin)
T1 sequence (Q9UBN7 whole entry): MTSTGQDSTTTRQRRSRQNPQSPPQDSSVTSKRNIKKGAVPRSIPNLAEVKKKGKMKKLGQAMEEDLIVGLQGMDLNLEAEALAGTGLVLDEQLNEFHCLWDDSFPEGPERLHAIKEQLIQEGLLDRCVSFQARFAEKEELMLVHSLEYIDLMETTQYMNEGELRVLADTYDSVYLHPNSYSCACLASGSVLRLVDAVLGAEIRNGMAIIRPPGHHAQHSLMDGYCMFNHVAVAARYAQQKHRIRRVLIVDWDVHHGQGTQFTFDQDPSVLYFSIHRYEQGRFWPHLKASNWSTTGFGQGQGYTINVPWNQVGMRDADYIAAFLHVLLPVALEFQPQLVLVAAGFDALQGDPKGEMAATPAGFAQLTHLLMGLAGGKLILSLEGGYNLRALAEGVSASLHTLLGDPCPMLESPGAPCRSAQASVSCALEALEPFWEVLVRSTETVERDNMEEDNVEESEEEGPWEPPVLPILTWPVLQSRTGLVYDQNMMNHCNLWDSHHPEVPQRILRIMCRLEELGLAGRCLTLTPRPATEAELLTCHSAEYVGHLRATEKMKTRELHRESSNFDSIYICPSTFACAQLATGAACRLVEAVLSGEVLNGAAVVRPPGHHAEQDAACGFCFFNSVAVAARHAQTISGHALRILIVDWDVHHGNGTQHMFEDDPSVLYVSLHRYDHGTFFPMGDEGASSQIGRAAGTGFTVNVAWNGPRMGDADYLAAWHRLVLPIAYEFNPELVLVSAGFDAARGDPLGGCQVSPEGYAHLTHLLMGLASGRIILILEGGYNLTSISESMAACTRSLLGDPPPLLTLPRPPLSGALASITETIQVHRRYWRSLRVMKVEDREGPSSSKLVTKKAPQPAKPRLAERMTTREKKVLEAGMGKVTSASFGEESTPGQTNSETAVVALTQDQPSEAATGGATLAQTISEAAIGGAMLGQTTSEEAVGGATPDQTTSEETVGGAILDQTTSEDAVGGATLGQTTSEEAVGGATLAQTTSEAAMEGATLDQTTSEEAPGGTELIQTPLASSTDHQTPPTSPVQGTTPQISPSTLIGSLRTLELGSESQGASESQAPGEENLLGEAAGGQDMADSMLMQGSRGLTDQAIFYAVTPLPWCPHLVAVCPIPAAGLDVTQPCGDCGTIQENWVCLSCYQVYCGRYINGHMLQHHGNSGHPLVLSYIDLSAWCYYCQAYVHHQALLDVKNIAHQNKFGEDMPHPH

Histone deacetylase 1, sequence (Q13547 whole entry): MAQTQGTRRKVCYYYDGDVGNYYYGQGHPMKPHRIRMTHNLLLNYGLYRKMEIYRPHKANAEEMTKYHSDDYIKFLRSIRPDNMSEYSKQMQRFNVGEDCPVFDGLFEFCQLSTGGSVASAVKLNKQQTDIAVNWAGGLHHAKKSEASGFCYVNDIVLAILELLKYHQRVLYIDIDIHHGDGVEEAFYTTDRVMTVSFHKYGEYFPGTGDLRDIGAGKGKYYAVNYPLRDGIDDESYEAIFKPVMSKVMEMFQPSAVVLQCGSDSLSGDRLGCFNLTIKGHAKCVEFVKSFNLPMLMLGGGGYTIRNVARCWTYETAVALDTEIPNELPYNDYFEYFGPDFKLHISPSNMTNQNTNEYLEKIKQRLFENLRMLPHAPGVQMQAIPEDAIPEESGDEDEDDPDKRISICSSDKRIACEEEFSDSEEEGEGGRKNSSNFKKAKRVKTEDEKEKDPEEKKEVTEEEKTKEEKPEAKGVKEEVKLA
Fibroblast growth factor receptor 1, sequence (P11362 whole entry): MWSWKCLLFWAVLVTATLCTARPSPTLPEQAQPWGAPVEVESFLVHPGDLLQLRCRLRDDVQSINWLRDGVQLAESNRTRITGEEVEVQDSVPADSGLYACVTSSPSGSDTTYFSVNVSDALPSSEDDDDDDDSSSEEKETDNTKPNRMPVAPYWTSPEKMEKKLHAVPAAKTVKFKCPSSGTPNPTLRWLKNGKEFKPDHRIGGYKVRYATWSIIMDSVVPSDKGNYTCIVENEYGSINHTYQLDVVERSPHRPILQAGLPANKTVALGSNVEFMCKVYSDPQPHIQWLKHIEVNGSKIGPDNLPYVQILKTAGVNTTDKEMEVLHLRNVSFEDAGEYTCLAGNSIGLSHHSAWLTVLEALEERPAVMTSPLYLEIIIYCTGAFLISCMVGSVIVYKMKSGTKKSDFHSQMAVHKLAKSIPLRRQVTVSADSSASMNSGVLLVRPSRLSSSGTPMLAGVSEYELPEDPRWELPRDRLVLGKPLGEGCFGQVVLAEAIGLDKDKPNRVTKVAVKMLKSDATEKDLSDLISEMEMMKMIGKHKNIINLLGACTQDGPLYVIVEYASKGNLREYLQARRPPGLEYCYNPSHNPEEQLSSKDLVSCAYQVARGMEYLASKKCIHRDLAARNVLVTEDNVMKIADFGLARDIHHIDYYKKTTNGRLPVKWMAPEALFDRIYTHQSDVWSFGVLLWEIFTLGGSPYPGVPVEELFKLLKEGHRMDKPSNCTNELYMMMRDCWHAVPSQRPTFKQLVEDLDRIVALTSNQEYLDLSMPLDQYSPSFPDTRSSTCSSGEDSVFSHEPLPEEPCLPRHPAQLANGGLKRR

COc1cc(OC)cc(N(CCNC(C)C)c2ccc3ncc(-c4cnn(CCCOc5ccc(C(=O)NO)cc5)c4)nc3c2)c1
IC50 (Histone deacetylase 1): 126 nM

COc1cc(OC)cc(N(CCNC(C)C)c2ccc3ncc(-c4cnn(CCCCCC(=O)NO)c4)nc3c2)c1
IC50 (Histone deacetylase 1): 4.4 nM

COc1cc(OC)cc(N(CCNC(C)C)c2ccc3ncc(-c4cnn(C)c4)nc3c2)c1 [ERDAFITINIB]
IC50 (A2780): 20 nM | IC50 (cells): 4 nM | IC50 (HCT-116): 4240 nM | inhibition (SNU-16 [1]): Dde | IC50 (SNU-16 [2]): 0.7 nM | IC50 (Jurkat): 6810 nM | IC50 (K562): 3020 nM | inhibition (SNU-16 [3]): Active

COc1cc(OC)cc(N(CCNC(C)C)c2ccc3ncc(-c4cnn(CCC(=O)Nc5ccc(C(=O)NO)cc5)c4)nc3c2)c1
IC50 (Histone deacetylase 1): 5.7 nM

COc1cc(OC)cc(N(CCNC(C)C)c2ccc3ncc(-c4cnn(Cc5ccc(C(=O)NO)cc5)c4)nc3c2)c1
IC50 (Histone deacetylase 1): > 1000 nM

COc1cc(OC)cc(N(CCNC(C)C)c2ccc3ncc(-c4cnn(CCCCCCCC(=O)NO)c4)nc3c2)c1
IC50 (Histone deacetylase 1): 6.3 nM

COc1cc(OC)cc(N(CCNC(C)C)c2ccc3ncc(-c4cnn(Cc5ccc(/C=C/C(=O)NO)cc5)c4)nc3c2)c1
IC50 (A2780): 60 nM | IC50 [4]: 28 nM | IC50 (cells): 120 nM | IC50 (HCT-116): 60 nM | IC50 (Histone deacetylase 1): 47 nM | IC50 (SNU-16 [2]): 50 nM | IC50 (Jurkat): 6380 nM | IC50 (K562): 460 nM

COc1cc(OC)cc(N(CCNC(C)C)c2ccc3ncc(-c4cnn(CCCC(=O)NO)c4)nc3c2)c1
IC50 (Histone deacetylase 1): 653 nM

COc1cc(OC)cc(N(CCCCCCC(=O)NO)c2ccc3ncc(-c4cnn(C)c4)nc3c2)c1
IC50 (Histone deacetylase 1): 5.8 nM | IC50 [5]: 13 nM

COc1cc(OC)cc(N(CC2CC2)c2ccc3ncc(-c4cnn(CCCCCCCC(=O)NO)c4)nc3c2)c1
IC50 (Histone deacetylase 1): 172 nM

COc1cc(OC)cc(N(CCNC(C)C)c2ccc3ncc(-c4cnn(CCc5ccc(C(=O)NO)cc5)c4)nc3c2)c1
IC50 (Histone deacetylase 1): 69 nM
